Test [1] has as its system Key Grass and Sedge Weeds as well as Grass Crops. Kind of test: Post-Emergent Test II (Table 6). As to conditions: for Visual Growth Reduction (%) 14 Days After Application, CYPSS: CYPSS (CYPES: yellow nutsedge, Cyperus esculentus); for Visual Growth Reduction (%) 14 Days After Application, ECHSS: ECHSS (ECHCG: barnyardgrass, Echinochloa crus-galli); for Visual Growth Reduction (%) 14 Days After Application, ORYSS: ORYSS (ORYSA: rice, Oryza sativa); for Visual Growth Reduction (%) 14 Days After Application, ORYSS / Visual Growth Reduction (%) 14 Days After Application, TRZSS / Visual Growth Reduction (%) 14 Days After Application, ZEAMX: crop; for Visual Growth Reduction (%) 14 Days After Application, SORVU: SORVU: johnsongrass (Sorghum vulgare); for Visual Growth Reduction (%) 14 Days After Application, TRZSS: TRZSS (TRZAS: wheat, spring, Triticum aestivum); for pest or weed control at 140 g/ha: post-emergence, 336 h, 14 days after application. It counts as in vivo. Here is the method: (§1) Seeds or nutlets of the desired test plant species were planted in Sun Gro Metro-Mix® 360 planting mixture, which typically has a pH of 6.0 to 6.8 and an organic matter content of about 30 percent, in plastic pots with a surface area of 64 square centimeters. When required to ensure good germination and healthy plants, a fungicide treatment and/or other chemical or physical treatment was applied. The plants were grown for 7-21 days in a greenhouse with an approximate 15 h photoperiod which was maintained at about 23-29° C. during the day and 22-28° C. during the night. Nutrients and water were added on a regular basis and supplemental lighting was provided with overhead metal halide 1000-Watt lamps as necessary. The plants were employed for testing when they reached the first or second true leaf stage.
(§2) A weighed amount, determined by the highest rate to be tested, of each test compound was placed in a 25 mL glass vial and was dissolved in 4 mL of a 97:3 v/v mixture of acetone and DMSO to obtain concentrated stock solutions. […] The concentrated stock solutions obtained were diluted with 20 mL of an aqueous mixture containing acetone, water, isopropyl alcohol, DMSO, Atplus 411F crop oil concentrate, and Triton® X-155 surfactant in a 48.5:39:10:1.5:1.0:0.02 v/v ratio to obtain spray solutions containing the highest application rates. Additional application rates were obtained by serial dilution of 12 mL of the high rate solution into a solution containing 2 mL of 97:3 v/v mixture of acetone and DMSO and 10 mL of an aqueous mixture containing acetone, water, isopropyl alcohol, DMSO, Atplus 411F crop oil concentrate, and Triton X-155 surfactant in a 48.5:39:10:1.5:1.0:0.02 v/v ratio to obtain ½×, ¼×, ⅛× and 1/16× rates of the high rate. Compound requirements are based upon a 12 mL application volume at a rate of 187 liters per hectare (L/ha). Formulated compounds were applied to the plant material with an overhead Mandel track sprayer equipped with 8002E nozzles calibrated to deliver 187 L/ha over an application area of 0.503 square meters at a spray height of 18 inches (43 cm) above the average plant canopy height. Control plants were sprayed in the same manner with the solvent blank.
(§3) The treated plants and control plants were placed in a greenhouse as described above and watered by subirrigation to prevent wash-off of the test compounds. After 14 days, the condition of the test plants as compared with that of the untreated plants was determined visually and scored on a scale of 0 to 100 percent where 0 corresponds to no injury and 100 corresponds to complete kill and presented as indicated in Table A. Some of the compounds tested, application rates employed, plant species tested, and results are given in Table 5.

The subject of test [2] is Key Broadleaf Weed and Crop Species. Kind of test: Post-Emergent Test II (Table 5). Type of test: in vivo. Conditions: post-emergence, 336 h; for pest or weed control at 70 g/ha: application rate 70 (kg ai/ha; footnote: g ai/ha); for pest or weed control at 140 g/ha: application rate 140 (kg ai/ha; footnote: g ai/ha). Here is the method:
as §1, §2, §3

The mark [3] stands for this setting: Abutilon theophrasti, ABUTH: velvetleaf (Abutilon theophrasti), read-out: Visual Growth Reduction (%) 14 Days After Application ABUTH.
Where [4] appears, read: Amaranthus retroflexus, AMARE: redroot pigweed (Amaranthus retroflexus), read-out: Visual Growth Reduction (%) 14 Days After Application AMARE.
The mark [5] stands for this setting: Brassica napus, BRSSS: oilseed rape, canola (Brassica napus), read-out: Visual Growth Reduction (%) 14 Days After Application BRSSS.
Where [6] appears, read: Chenopodium album, CHEAL: lambsquarters (Chenopodium album), read-out: Visual Growth Reduction (%) 14 Days After Application CHEAL.
[7] abbreviates: Euphorbia heterophylla, EPHHL: wild poinsettia (Euphorbia heterophylla), read-out: Visual Growth Reduction (%) 14 Days After Application EPHHL.
Setting [8] is: Helianthus annuus, HELAN: sunflower (Helianthus annuus), read-out: Visual Growth Reduction (%) 14 Days After Application HELAN.
[9] abbreviates: Viola tricolor, VIOTR: wild pansy (Viola tricolor), read-out: Visual Growth Reduction (%) 14 Days After Application VIOTR.

Like-named read-outs stand apart in the source and are kept apart here.

In the case of `COC(=O)c1nc(-c2ccc(Cl)c(F)c2Cl)c(F)c(N)c1Cl` [Compound 19, Methyl 4-amino-3-chloro-6-(2,4-dichloro-3-fluorophenyl)-5-fluoropicolinate], the “Visual Growth Reduction (%) 14 Days After Application, CYPSS” value in test [1] (70 g ai/ha) and in test [1] (140 g ai/ha) was “A (95-100)” throughout. In addition, the “Visual Growth Reduction (%) 14 Days After Application, DIGSA” value in test [1] (DIGSA: crabgrass (Digitaria sanguinalis), 70 g ai/ha) is listed as “E (45-59)”; in test [1] (DIGSA: crabgrass (Digitaria sanguinalis), 140 g ai/ha), “C (75-84)”. Also, the “Visual Growth Reduction (%) 14 Days After Application, ECHSS” value was “C (75-84)” in test [1] (70 g ai/ha) and “A (95-100)” in test [1] (140 g ai/ha). Moreover, the “Visual Growth Reduction (%) 14 Days After Application, ORYSS” value is recorded as “F (30-44)” in test [1] (70 g ai/ha) and “E (45-59)” in test [1] (140 g ai/ha). Moreover, the “Visual Growth Reduction (%) 14 Days After Application, SETFA” value is reported as “C (75-84)” in test [1] (SETFA: giant foxtail (Setaria faberi), 70 g ai/ha) and “B (85-94)” in test [1] (SETFA: giant foxtail (Setaria faberi), 140 g ai/ha). In addition, the “Visual Growth Reduction (%) 14 Days After Application, SORVU” value in test [1] (70 g ai/ha) and in test [1] (140 g ai/ha) was “B (85-94)” each time. Further, the “Visual Growth Reduction (%) 14 Days After Application, TRZSS” value in test [1] (70 g ai/ha) and in test [1] (140 g ai/ha) was “C (75-84)” each time. Further, the “Visual Growth Reduction (%) 14 Days After Application, ZEAMX” value is given as “B (85-94)” in test [1] (ZEAMX: maize, corn (Zea mays), 70 g ai/ha) and “A (95-100)” in test [1] (ZEAMX: maize, corn (Zea mays), 140 g ai/ha). In addition, the pest or weed control at 70 g/ha fell in the range of 95 to 100% in test [2] (setting [3]); 95 to 100% in test [2] (setting [4]); 95 to 100% in test [2] (setting [5]); 85 to 94% in test [2] (setting [6]); 85 to 94% in test [2] (setting [7]); 95 to 100% in test [2] (setting [8]). In addition, the pest or weed control at 70 g/ha in test [2] (setting [9]) was 85 to 94%. The pest or weed control at 140 g/ha in test [2] (setting [3]), in test [2] (setting [4]), in test [2] (setting [5]), in test [2] (setting [6]), in test [2] (setting [7]) and in test [2] (setting [8]) was 95 to 100% each time. The pest or weed control at 140 g/ha in test [2] (setting [9]) was in the range of 95 to 100%.

For the compound `Nc1c(F)c(-c2ccc(C(F)(F)F)nc2F)nc(C(=O)O)c1Cl` [Compound 26], the pest or weed control at 140 g/ha in test [1] (CYPSS, 140 g ai/ha, read-out: Visual Growth Reduction (%) 14 Days After Application CYPSS) was in the range of 0 to 29%; in test [1] (DIGSA: crabgrass (Digitaria sanguinalis), 140 g ai/ha, read-out: Visual Growth Reduction (%) 14 Days After Application DIGSA), 0 to 29%; in test [1] (ECHSS, 140 g ai/ha, read-out: Visual Growth Reduction (%) 14 Days After Application ECHSS), 0 to 29%; in test [1] (ORYSS (crop), 140 g ai/ha, read-out: Visual Growth Reduction (%) 14 Days After Application ORYSS) it was 0 to 29%; in test [1] (SETFA: giant foxtail (Setaria faberi), 140 g ai/ha, read-out: Visual Growth Reduction (%) 14 Days After Application SETFA) it was 0 to 29%; in test [1] (SORVU: grain sorghum (Sorghum vulgare), 140 g ai/ha, read-out: Visual Growth Reduction (%) 14 Days After Application SORVU) it was 0 to 29%. Further, the pest or weed control at 140 g/ha in test [1] (TRZSS (crop), 140 g ai/ha, read-out: Visual Growth Reduction (%) 14 Days After Application TRZSS) lay within 0 to 29%; in test [1] (ZEAMX: maize, corn (Zea mays), 140 g ai/ha, read-out: Visual Growth Reduction (%) 14 Days After Application ZEAMX) it was 0 to 29%; in test [2] (setting [3]) it was 0 to 29%; in test [2] (setting [4]), 0 to 29%; in test [2] (setting [5]), 0 to 29%; in test [2] (setting [6]), 0 to 29%. Also, the pest or weed control at 140 g/ha is 0 to 29% in test [2] (setting [7]), 45 to 59% in test [2] (setting [8]) and 0 to 29% in test [2] (setting [9]).

The values are drawn from US10765114B2, “4-amino-6-(pyridyl and 2-substitutedphenyl)-picolinates and 6-amino-2-(pyridyl and 2-substitutedphenyl)-pyrimidine-4-carboxylates and their use as herbicides” (Dow AgroSciences LLC, priority 2013, dated 2020).
